Test results from patent publication US10987377B2, “Use of inhaled gaseous nitric oxide as a mucolytic agent or expectorant” (Advanced Inhalation Therapies (AIT), Ltd., priority 2004, dated 2021).
Values joined by “and” are separate entries in the source; they are usually repeats but may differ in a detail not shown here. Identical values can stand only once.

Key:
[1] = system: Standardbred horses with excessive mucus accumulation; assay: Example 2: inhalant Nitric Oxide gas in Standardbred horses with excessive mucus accumulation, post race endoscopic mucus score; assay type: in vivo, equine; set-up: key to Decrease in Mucus Score: Dixon score: 0 = no mucus, 1-5 = increasing mucus; pre minus post
Text: Twenty-seven Standardbred horses were referred to this study with a history of poor performance and with evidence of excessive mucus accumulation as surveyed by endoscopic exam. This was a single site population study and the subjects served as their own control.
Horses were examined pretreatment by videoendocscopy on a minimum of two consecutive occasions post race, one week or longer between scopings, to document the degree and persistence of mucus residence. The endoscope was passed to the level of the bifurcation of the trachea (carina) with images logged on a video recorder. The Dixon et al. scoring system was used to indicate the presence or absence of mucus, as well as its severity, if present. Zero indicates absence of mucus, and 1 to 5 indicating increasing amounts of mucus observed endoscopically in the trachea. Scoring was done by the veterinarian conducting the examination, then later by another “blinded” individual using the recorded examination.
Treatment via a metered delivery device was provided that included a source of nitric oxide from a pressurized gas cylinder and a delivery interface with the subject's nare. The Nitric Oxide delivery device is enabled by a microprocessor-based computer (Pulmonox Medical Inc, Tofield, Alberta, Canada) wherein a proportionate flow rate of Nitric Oxide gas is delivered based on the horse's tidal volume/minute ventilation with a resulting airway/pulmonary concentration of 160-200 ppm.
Upon enrollment in the study a candidate for the treatment intervention was administered 100 breathes of NO gas as previously described for a minimum of three days. A follow up endoscopic exam on the next available immediate post race was performed and a mucus score assigned. Post race endoscopic exams were continued for several events as a measurable outcome. Depending on the results (i.e. no change or a graded increase in mucus scores) multiple treatment cycles were continued and the results recorded via post race endoscopic exam over the next of several weeks.

[2] = system: bovine; assay: Preliminary experiments with bovine, mucus hydrolyzed and excreted from the nares; assay type: in vivo
Text: Thus, the Applicants believe that inhaled gaseous NO as an effective treatment to excess mucus accumulation in the airways of mammals.

[3] = system: Thoroughbred racehorses with excessive mucus production; assay: Example 1: inhaled gaseous NO in Thoroughbred racehorses with excessive mucus, endoscopic mucus scoring; assay type: in vivo, equine; set-up: key to Mucus status: NG = No change in status; details: for Side effects: equine study, inhaled administration
Text: Six (6) Thoroughbred racehorses at a major racing jurisdiction were quarantined for two weeks, and each horse had evidence of excessive mucus production as surveyed by clinical presentation and by endoscopic exam. The horses were isolated from each other and were being medicated daily in series with several broad-spectrum antimicrobials routinely employed for respiratory infections in Equids. The results before the administration with gaseous NO had been unremarkable. […] All six horses were included in the study using gaseous NO.
The horses were brought individually to the veterinary hospital barn for further evaluation over the course of five days. An fiberoptic endoscope was passed to the level of the bifurcation of the trachea (carina-airway) with images recorded on videotape. A scoring system was used to indicate the presence or absence of mucus, as well as its severity, if present. This scoring system has been described by Dixon et. al., “Equine Pulmonary Disease: Ancillary Diagnostic Findings,” Equine Vet. Journal 27, 428-435, 1995, herein incorporated by reference in its entirety. A score of zero indicates the absence of mucus, while a score of 1 to 5 indicates increasing amounts of mucus observed endoscopically in the trachea. The attending Veterinarian conducting the examination did the scoring. All of the six horses scored 4 or higher before the initiation of the treatments.
Treatment intervention of inhaled gaseous Nitric Oxide was administered to all six horses during a five-day period. Five of the horses (#2-#6) received 100 breaths of 10,000 ppm resulting in, based on pulmonary mechanics, a lung concentration of approximately 160 ppm. Horse #1 received 100 breaths of 5000 ppm resulting in 80 ppm on Day #1 and a second administration of 100 breaths of 10,000 ppm on Day #5. Horse #5 received 100 breaths of 10,000 ppm on Day #3 and a second administration of 100 breaths of 10,000 ppm on Day #4.
An outline of the treatment results is provided below in Table No. 1 (with scores when available). […] On a day where a measurement and a treatment occur, such as Day #4 for Horse #5, the measurement was taken before the administration of the second dosage.

[4] = system: healthy bovine; assay: Preliminary experiments with healthy bovine, prevention of mucus accumulation; assay type: in vivo; details: inhaled
Text: Additionally, inhaled nitric oxide containing gas may act as a preventative measure in the accumulation of mucus in the airways. […] Such a risk may be associated with recent infection and/or contact with other infected mammals. […] The delivery of inhaled nitric oxide containing gas may be administered to these risk mammals in order to prevent mucus accumulation in the airway. Effective therapeutic amounts may also refer to an amount sufficient to break down the viscoelastic mucus and increase mucociliary transport in the mammal's airway and to increase MMC in the mammal. Therefore, treating mucus accumulation in the airways of a mammal comprises reducing mucus accumulation, preventing mucus accumulation, reducing mucociliary dyskinesia, and/or preventing mucociliary dyskinesia.

`[N]=O` [gNO, Nitric Oxide] was tested, and the “Response to additional treatment cycles” value ([1]; horses with recurrence to scores of 2 or more in the weeks following the first treatment) was “repeatable marked reduction in mucus scores following treatment”, the “Post-Mucus Score (after administering gNO)” value ([1]; individual horses 1-27, 100 breaths for a minimum of three days, airway concentration 160-200 ppm, post race endoscopy, Dixon scale 0-5) was 2 (6×) and 0 (7×) and 3 (2×) and 4 (2×) and 1 (4×) and 1.5 (2×) and 2.5 (4×) and the “Decrease in Mucus Score” value ([1]; individual horses 1-27, pre-score minus post-score, 100 breaths for a minimum of three days, 160-200 ppm) was “.5 (7×) and 1 (5×) and 2.5 (2×) and 3 (3×) and 3.5 (2×) and 2 (5×) and 1.5 and 0”. For the same compound, the “Number of horses with decrease in score by at least 0.5” value ([1]; of twenty-seven, Dixon et al. scale) was “Twenty five”, the “Number of horses with score reduction of at least 1” value ([1]; of twenty-seven, after a single treatment cycle) was “Eighteen” and the “Number of subjects with decrease in mucus score from 2 to 3.5” value ([1]; of twenty-seven, single or multiple treatments, transient reduction) was “Twelve”. For the same compound, the “Improvement in mucus scores post treatment” value ([1]; twenty-seven horses enrolled) was “all but two showed significant improvement in their mucus scores”, the “Time until mucus is hydrolyzed and excreted from the nares” value [2] was 10 to 30 min and the “Mucus score (endoscopic, 0-5)” value ([3]; Horse #1, Day #2, Tx 100 breaths at 5000 ppm on Day #1) was “Clear (0)”. For the same compound, the “Return of the previous amount of mucus (amount before administration of gNO), not scored” value (shortened to “Return of the previous amount … not scored”) ([3]; Horse #1, Day #3, Tx 100 breaths at 5000 ppm on Day #1) was 25% rtn, the Mucus status ([3]; Horse #1, Day #4, Tx 100 breaths at 5000 ppm on Day #1) was “NG” and the Mucus status ([3]; Horse #1, Day #5, before second Tx (10,000 ppm), Tx 5000 ppm on Day #1) was “NG, Tx 10k”. The “Mucus score (endoscopic, 0-5)” value ([3]; Horse #1, Day #6, Tx 5000 ppm Day #1 and Tx 100 breaths at 10,000 ppm Day #5) was “Trace (1)”, the “Mucus score (endoscopic, 0-5)” value ([3]; Horse #2, Day #2, Tx 100 breaths at 10,000 ppm on Day #1) was “Clear (0)” and the “Return of the previous amount … not scored” value ([3]; Horse #2, Day #3, Tx 100 breaths at 10,000 ppm on Day #1) was 25% rtn. The Mucus status ([3]; Horse #2, Day #4, Tx 100 breaths at 10,000 ppm on Day #1) was “NG”, the Mucus status ([3]; Horse #2, Day #5, Tx 100 breaths at 10,000 ppm on Day #1) was “NG” and the “Mucus score (endoscopic, 0-5)” value ([3]; Horse #3, Day #3, Tx 100 breaths at 10,000 ppm on Day #2) was “Clear (0)”. For the same compound, the Mucus status ([3]; Horse #3, Day #4, Tx 100 breaths at 10,000 ppm on Day #2) was “NG”, the “Mucus score (endoscopic, 0-5)” value ([3]; Horse #3, Day #5, Tx 100 breaths at 10,000 ppm on Day #2) was “Trace (2)” and the “Mucus score (endoscopic, 0-5)” value ([3]; Horse #4, Day #4, Tx 100 breaths at 10,000 ppm on Day #3) was “Clear (0)”. For the same compound, the “Return of the previous amount … not scored” value ([3]; Horse #4, Day #5, Tx 100 breaths at 10,000 ppm on Day #3) was 25% rtn, the “Mucus score (endoscopic, 0-5)” value ([3]; Horse #5, Day #4, before second dosage, Tx 100 breaths at 10,000 ppm on Day #3) was “Clear (0),” and the “Mucus score (endoscopic, 0-5)” value ([3]; Horse #5, Day #5, Tx 100 breaths at 10,000 ppm on Day #3 and Day #4) was “Trace (2)”. For the same compound, the “Mucus score (endoscopic, 0-5)” value ([3]; Horse #5, Day #6, Tx 100 breaths at 10,000 ppm on Day #3 and Day #4) was “Trace (1)”, the “Mucus score (endoscopic, 0-5)” value ([3]; Horse #6, Day #6, Tx 100 breaths at 10,000 ppm on Day #5) was “Trace (2)” and the “Reduction in mucus from Day #1” value ([3]; Horses #2 and #4 (25% of the mucus returned, not scored)) was 75%. For the same compound, the Side effects [3] was “did not result in any irritation, inflammation or abnormal side effects”, the Side effects ([3]; listed as inhaled NO) was “no untoward side effects were observed” and the “Observation immediately following administration” value ([3]; horses, inhaled) was “non-viscous liquids started to flow out of the nares of the horses”. For the same compound, the “Time until non-viscous liquids start to flow out of the nares” value ([3]; six equine with excessive mucus accumulation, after inhalation) was 10 to 30 min, the Reduction of mucus ([3]; six equine, all subjects) was “reductions of mucus to trace levels in all subjects” and the “Prevention of mucus accumulation” value [4] was “results in the prevention of mucus accumulation”.
